Measured values: paper PMC7822874, “Chemoprotective antimalarials identified through quantitative high-throughput screening of Plasmodium blood and liver stage parasites” (Scientific Reports, 2021)

Test system: luciferase-expressing P. berghei liver stage parasites in HepG2 cells
Assay: Inhibition of liver-stage development assay (ILSDA), Method 2 (WRAIR, 96-well)
Type: cell-based, Plasmodium berghei
Conditions: Method 2; Decrease = decreasing P. berghei viability with dose, Increase = increasing signal, Inactive = no dose response; call rule not given here

Row | SMILES | Max Resp (signal direction of the dose response)
1 | O=C(Nc1ncccc1O)c1ccc(S(=O)(=O)Nc2ccccc2)cc1 [MLS001099437-01] | Inactive

Test system: not listed separately
Assay: in vitro
Conditions: human, hepg2-a16-cd81egfp cells

Row | SMILES | viability at 3 µM [%]
2 | COC(=O)C1=C(C)NC(C)=C(C(=O)OCCCN2CCC(c3ccccc3)(c3ccccc3)CC2)C1c1cccc([N+](=O)[O-])c1 (stereo not drawn) [NCGC00163135] | 81

Same assay, conditions: human, hepg2-a16-cd81egfp cells, % viability

Row | SMILES | viability at 3 µM [%]
3 | CCOC(=O)c1c(CN2CCN(c3ccccc3)CC2)oc2cc(Br)c(O)cc12 [MLS001198242] | 90.6
4 | CCOc1cccc(CNCCc2c(C)[nH]c3ccc(OC(F)(F)F)cc23)c1O [MLS001198351] | 70.5
5 | COc1cc(OC)c(NC2=CC(=O)C(=O)c3ccccc32)cc1Cl [MLS001198657] | 62
6 | CCCCN(CC)CCNC(=O)c1cc2c(-c3ccc(Cl)cc3)nn(C)c2s1 [MLS001199341] | 90.6
7 | COc1cc2nc(Nc3ccc(C)c(C)c3)nc(N)c2cc1OC [MLS001199689] | 102
8 | COc1cccc(-c2c(C#N)c(N)nc3c2c(C)nn3-c2ccccc2)c1O [MLS001214341] | 90.5
9 | CN(C)CCCn1cnc2c(c1=N)C(c1ccccc1)c1ccc3ccccc3c1O2 (stereo not drawn) [MLS001216375] | 106
10 | O=C(N/N=C(/c1ccccc1)c1cccnc1)c1cccc(F)c1 [MLS001224623] | 32
11 | O=C(Nc1ccncc1)Nc1cccc(Cl)c1Cl [MLS001224778] | 96.5
12 | C/C(=N\NC(=O)c1cccc(Br)c1)c1ccccn1 [MLS001232242] | 81.3
13 | O=C(c1ccc([N+](=O)[O-])o1)N1CCN(c2nc3c(Cl)cccc3s2)CC1 [MLS001234208] | 90.1
14 | COc1ccc2nc(N3CCN(C(=O)c4ccc([N+](=O)[O-])o4)CC3)sc2c1 [MLS001234236] | 89.3
15 | COc1cccc2sc(N3CCN(C(=O)c4ccc([N+](=O)[O-])o4)CC3)nc12 [MLS001234267] | 93.6
16 | Cc1ccc(C)c2sc(N3CCN(C(=O)c4ccc([N+](=O)[O-])o4)CC3)nc12 [MLS001234268] | 94.7
17 | O=C(O)c1cc(-c2ccccc2)cc(-c2ccccc2)[n+]1Cc1ccccc1 [MLS001240915] | 98.5
18 | CC(=O)Nc1ccc(Nc2cc(C)nc(Nc3ccc(NC(C)=O)cc3)n2)cc1 [MLS001359830] | 93.2
19 | COc1cc(Cl)c(NC2=CC(=O)C(=O)c3ccccc32)c(OC)c1 [MLS001360325] | 65.1
20 | CCCCCCSc1ccc([C@H]2N[C@@](Cc3ccccc3)(C(=O)OC)[C@H]3C(=O)N(CC)C(=O)[C@@H]23)cc1 [MLS001362744] | 91.8
21 | COc1cc(NS(C)(=O)=O)ccc1Nc1c2ccccc2nc2ccccc12 [MLS002153376] | 84.3
22 | O[C@@H]1[C@@H](O)C=C2CCN3Cc4cc5c(cc4[C@H]1C23)OCO5 (stereo partly drawn) [MLS002153955] | 77.4
23 | CC(C(=O)N1CCCC1)N1CCN(S(=O)(=O)c2ccc(C(C)(C)C)cc2)CC1 (stereo not drawn) [MLS002156464] | 92.8
24 | Cc1cc(O)c(CN2CCN(S(=O)(=O)c3cccs3)CC2)cc1C(C)C [MLS002157185] | 92.3
25 | Cc1ccc(C(=O)Nc2nc(-c3ccccn3)cs2)cc1S(=O)(=O)N1CCOCC1 [MLS002157637] | 58.9
26 | O=C(Nc1nc(-c2ccccn2)cs1)c1cccc(S(=O)(=O)N2CCOCC2)c1 [MLS002161290] | 62.2
27 | C/C(=N\NC(=O)c1ccccc1OCc1ccc(F)cc1)c1ccccn1 [MLS002162875] | 82
28 | CCc1ccccc1OC[C@@H](O)CN[C@H]1CCCc2ccccc21 [MLS002172481] | 97.6

Row | SMILES | viability at 3 µM [%]
29 | CC(C)(C)OC(=O)N1CCC(CC2CC(c3ccccc3)=NO2)(C(=O)NCc2ccccc2)CC1 (stereo not drawn) [MLS002174287] | 99.3
30 | COc1cc2ccccc2cc1C(=O)N1CCCC(C(F)(F)F)C1 (stereo not drawn) [MLS002180647] | 86
31 | O=C1N(c2ccccc2C(F)(F)F)OC1(Cc1ccccc1)c1ccccc1 (stereo not drawn) [MLS002206595] | 85
32 | COc1ccc([C@@]2(C(C)C)ON(c3ccccc3C(F)(F)F)C2=O)cc1 [MLS002206606] | 83.8
33 | CC[C@]1(c2ccccc2OC)ON(c2ccccc2C(F)(F)F)C1=O [MLS002206607] | 102
34 | CC[C@@]1(c2ccccc2OC)ON(c2ccccc2C(F)(F)F)C1=O [MLS002206609] | 92.6
35 | COc1ccccc1[C@@]1(C)ON(c2ccccc2C(F)(F)F)C1=O [MLS002206613] | 88.4
36 | O=C1C=C(c2cccc(CO)c2)C[C@@H](c2ccc(Cl)cc2)C1 [MLS002302575] | 102
37 | N#Cc1nc(Nc2cc(F)cc(F)c2)c2ncn(CC(F)F)c2n1 [MLS002471784] | 90
38 | CCNc1nc(C#N)nc2c1ncn2-c1cc(F)cc(F)c1 [MLS002471787] | 99.9
39 | Clc1ccccc1C(c1ccccc1)(c1ccccc1)n1ccnc1 [NCGC00015251] | 99.7
40 | O=S1(=O)N(CCN2CC=C(c3c[nH]c4cc(F)ccc34)CC2)c2cccc3c2N1CCC3 [NCGC00015600] | 76.3
41 | CCc1nc(N)nc(N)c1-c1ccc(Cl)cc1 [NCGC00023188] | 95.9
42 | Oc1c(CN2CCN(c3ccccn3)CC2)cc(Cl)c2cccnc12 [NCGC00055619] | 77.4
43 | CC(C)(C)CC(C)(C)c1ccc(O)c(Cc2ccc(Cl)cc2Cl)c1 [NCGC00095016] | 93.1
44 | CC[C@@H](C(=O)[C@@H](C)[C@@H](O)[C@H](C)CCc1ccc(C)c(O)c1C(=O)O)[C@H]1O[C@](CC)([C@H]2CC[C@](O)(CC)[C@H](C)O2)C[C@@H]1C [NCGC00095029] | 27.3
45 | FC(F)(F)c1cccc(Nc2nc3nonc3nc2Nc2ccc(Cl)cc2)c1 [NCGC00100377] | 47.1
46 | COc1cc2nc(Nc3cccc(F)c3)nc(N)c2cc1OC [NCGC00107351] | 101
47 | COc1cc2nc(Nc3ccc(F)cc3)nc(N)c2cc1OC [NCGC00107353] | 92.7
48 | COc1ccc(C)cc1Nc1nc(N)c2cc(OC)c(OC)cc2n1 [NCGC00107383] | 94.9
49 | COc1cc2nc(SCc3ccc(F)cc3)n3nc(CCn4c(C)nc5ccccc54)nc3c2cc1OC [NCGC00108638] | 107
50 | COc1ccc(C2Sc3ccccc3N=C3C2=C(O)c2ccccc23)c(OC)c1OC (stereo not drawn) [NCGC00108825] | 43.7
51 | CCCN(C(=O)C(=O)Nc1ccc2nc3n(c(=O)c2c1)CCCCC3)c1ccc(OCC)cc1 [NCGC00114456] | 93.7
52 | O=C(Nc1ccc(Br)cc1)c1ccc(F)c([S+](=O)([O-])NC2CCCCCC2)c1 [NCGC00139407] | 78.6
53 | CN1CCc2cccc3c2[C@@H]1Cc1ccc(O)c(O)c1-3 [NCGC00142462] | 93.3
54 | O=C1C(=O)c2ncccc2-c2cccnc21 [NCGC00160369] | 24.2

Row | SMILES | viability at 3 µM [%]
55 | CNc1ccc2oc(C[C@@H]3OC4(CC[C@@H]3C)O[C@H]([C@@H](C)C(=O)c3ccc[nH]3)[C@H](C)C[C@H]4C)nc2c1C(=O)O (stereo partly drawn) [NCGC00161647] | 12.5
56 | CN([C@@H](Cc1ccc(OS(=O)(=O)c2cccc3cnccc23)cc1)C(=O)N1CCN(c2ccccc2)CC1)S(=O)(=O)c1cccc2cnccc12 [NCGC00162398] | 95.6
57 | CCN(CC)CCCN(c1ccccc1)C1Cc2ccccc2C1 [NCGC00167576] | 99.6
58 | C=C[C@]1(C)C[C@@H](OC(=O)CSC(C)(C)CNC(=O)[C@H](N)C(C)C)[C@]2(C)[C@H](C)CC[C@]3(CCC(=O)[C@H]32)[C@@H](C)[C@@H]1O [NCGC00167968] | 87.5
59 | O=C(CCCCCCC(=O)Nc1ccccc1)NO [NCGC00168085] | 45.6
60 | Clc1ccc(CCC(Cn2ccnc2)Sc2c(Cl)cccc2Cl)cc1 (stereo not drawn) [NCGC00179596] | 100
61 | CCn1cnc2c(Nc3cc(F)cc(F)c3)nc(C#N)nc21 [NCGC00181918] | 79.4
62 | COc1ccc(Nc2cc(O)c3ncccc3c2)cc1 [NCGC00183797] | 69
63 | O=C1c2ccccc2CCc2ccc(B(O)O)cc21 [NCGC00183917] | 82.4
64 | O[C@H]1[C@H]2c3cc4c(cc3CN3CCC(=C[C@@H]1O)[C@@H]23)OCO4 [NCGC00262562] | 83.5
65 | O=[S+]([O-])(c1ccc(Cl)cc1)N1CCN(C(=S)Nc2ccc(F)c(Cl)c2)CC1 [NCGC00345140] | 85.6
66 | Cc1ccc(C(=O)Nc2nc(-c3ccccn3)cs2)cc1[S+](=O)([O-])N1CCOCC1 [NCGC00345210] | 29.5
67 | OCCCNc1cc(-c2ccnc(Nc3cccc(Cl)c3)n2)ccn1 [NCGC00346940] | 8.46
68 | O[C@H]1[C@H](NCC2CCCCC2)[C@H]2CO[C@H](O2)[C@@H]1N1CCC(Cc2ccccc2)CC1 [NCGC00394729] | 99.2
69 | CC1=C[C@@H](CNCc2cccnc2)[C@H](C(C)C)C[C@H]1Cc1nnc(-c2ccc([N+](=O)[O-])cc2)o1 [NCGC00394797] | 91.7
70 | c1ccc(Nc2cc3c(cn2)CN(Cc2ccc4[nH]ccc4c2)CCN3)cc1 [NCGC00411105] | 49.4
71 | COc1ccccc1Nc1cnc2ccc(-c3ccc(OC)c(OC)c3)nn12 [NCGC00412573] | 82.7
72 | CC(C)c1ccc(CC(=O)N2CCCc3ncc(C(=O)Nc4cccnc4)cc32)cc1 [NCGC00420003] | 45.1
73 | Cc1nn2c(c1-c1ccccc1-c1ccccc1)N(CC1CC1)CCC2 [NCGC00420435] | 49.8
74 | Cc1nn2c(c1-c1ccccc1-c1ccccc1)N(CCC(C)C)CCC2 [NCGC00420437] | 15.3
75 | Cc1cc(C)cc(C(=O)Nc2ccc3c(N4CCCC4)ncnc3c2)c1 [NCGC00425487] | 31.8
76 | O=C(Nc1ccc2c(N3CCCCC3)ncnc2c1)c1cc(F)cc(F)c1 [NCGC00425525] | 53.4
77 | O=C(Nc1ccc2c(N3CCOCC3)ncnc2c1)c1cccc(Br)c1 [NCGC00425561] | 49.3
78 | COc1ccc(CCC(=O)N2Cc3ccccc3OC3(CCN(C)CC3)C2)cc1 [NCGC00456460] | 106
